We go through four compounds from patent US20090036525A1, “Non-Natural Amino Acid Derivatives” (POXIMAGEN LTD., priority 2006, published 2009).

The subject of this assay is 6-OHDA-lesioned rats. Kind of assay: Induction of rotational activity in 6-OHDA-lesioned rats. The assay is classed as in vivo, rat. The note with it: 63.4 μmole/kg, after benserazide 10 mg/kg, rotations over 4 hours.

Where a SMILES comes first, the peptide text is derived from it. [ ]: non-standard residue; d: D form. Dopa = N[C@@H](Cc1ccc(O)c(O)c1)C(=O)O; Cha = N[C@@H](CC1CCCCC1)C(=O)O

On to `COC(=O)[C@H](Cc1ccc(O)c(O)c1)NC(=O)[C@@H](N)CC1CCCCC1.Cl` [Example 1, (S)-2-Cyclohexyl-1-[(S)-2-(3,4-dihydroxyphenyl)-1-methoxycarbonylethyl-carbamoyl]-ethylammonium chloride] (H-[Cha]-[Dopa]-OMe), for which, under “p.o.”, the “AUC activity (as % of AUC activity L-DOPA)” value is on record as 40 % of L-DOPA, the “Peak activity (as % of maximal activity L-DOPA)” value is 53 % of L-DOPA and the “duration of activity (as % of duration of activity L-DOPA)” value was 45 % of L-DOPA.

With `COC(=O)[C@H](Cc1ccc(OC(C)=O)c(OC(C)=O)c1)NC(=O)[C@@H](N)CC1CCCCC1.Cl` [Example 2, (S)-2-Cyclohexyl-1-[(S)-2-(3,4-diacetoxyphenyl)-1-methoxycarbonyl-ethylcarbamoyl]-ethylammonium chloride], for the setting “i.p.”, the “AUC activity (as % of AUC activity L-DOPA)” value is reported as 32 % of L-DOPA, the “Peak activity (as % of maximal activity L-DOPA)” value is on record as 31 % of L-DOPA and the “duration of activity (as % of duration of activity L-DOPA)” value was 27 % of L-DOPA.

As for `COC(=O)[C@H](Cc1ccc(O)c(O)c1)NC(=O)[C@@H](N)[C@@H](C)c1ccccc1.Cl` [Example 12, (1S,2S)-1-[(S)-2-(3,4-Dihydroxyphenyl)-1-methoxycarbonylethylcarbamoyl]-2-phenylpropylammonium chloride], where the note is “p.o.”, the “AUC activity (as % of AUC activity L-DOPA)” value is given as 50 % of L-DOPA, the “Peak activity (as % of maximal activity L-DOPA)” value is on record as 62 % of L-DOPA and the “duration of activity (as % of duration of activity L-DOPA)” value is 46 % of L-DOPA.

As for `COC(=O)[C@H](Cc1ccc(O)c(O)c1)NC(=O)[C@@H](N)[C@H](C)c1ccccc1.Cl` [Example 13, (1S,2R)-1-[(S)-2-(3,4-Dihydroxyphenyl)-1-methoxycarbonyl-ethylcarbamoyl]-2-phenylpropylammonium; chloride], where the note is “p.o.”, the “AUC activity (as % of AUC activity L-DOPA)” value is listed as 106 % of L-DOPA, the “Peak activity (as % of maximal activity L-DOPA)” value is 141 % of L-DOPA and the “duration of activity (as % of duration of activity L-DOPA)” value is given as 76 % of L-DOPA.
